This is an account of results in US5180746A, “Aralkylamine compounds” (priority 1989, dated 1993).

Molecules are shown by their SMILES. Structures can show the parent of a compound that is named as a salt.

In this experiment the target is T1, cholinesterase (Rattus norvegicus, UniProt P37136).
T1 construct: The S1 fraction of a cerebral cortex homogenate from male Wistar rats; from tissue; host or cells: cerebral cortex homogenate (S1 fraction), male Wistar rats
T1 sequence (P37136 32-614): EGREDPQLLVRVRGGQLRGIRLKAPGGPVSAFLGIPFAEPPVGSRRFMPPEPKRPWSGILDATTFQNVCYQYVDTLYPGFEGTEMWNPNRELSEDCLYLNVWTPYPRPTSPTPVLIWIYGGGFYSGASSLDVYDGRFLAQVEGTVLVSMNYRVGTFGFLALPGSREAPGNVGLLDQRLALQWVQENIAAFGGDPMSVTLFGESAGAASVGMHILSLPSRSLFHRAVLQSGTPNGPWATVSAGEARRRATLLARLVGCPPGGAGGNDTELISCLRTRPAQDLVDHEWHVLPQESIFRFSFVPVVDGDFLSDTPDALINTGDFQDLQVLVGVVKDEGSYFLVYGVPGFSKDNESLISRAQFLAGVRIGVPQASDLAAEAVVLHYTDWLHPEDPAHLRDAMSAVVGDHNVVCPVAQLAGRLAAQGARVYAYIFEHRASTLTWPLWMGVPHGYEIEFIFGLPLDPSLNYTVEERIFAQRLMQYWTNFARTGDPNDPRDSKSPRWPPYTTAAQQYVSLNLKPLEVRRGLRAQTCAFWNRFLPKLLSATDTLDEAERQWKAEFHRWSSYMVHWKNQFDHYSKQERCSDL
The experiment is described as follows: anticholinesterase activity using (acetyl-[3H])-acetylcholine, S1 fraction of rat cerebral cortex homogenate. In kind it is biochemical, male Wistar rats. The settings on record: (acetyl-[3H])-acetylcholine substrate, 30 minutes incubation.
Description: The anticholinesterase activity of the compound of the invention was evaluated using (acetyl-[^3 H])-acetylcholine. The S1 fraction of a cerebral cortex homogenate from male Wistar rats was used as the cholinesterase source, (acetyl-[^3 H])-acetylcholine as the substrate and the test compound of the invention as the test substance. The incubation was carried out for 30 minutes and after the reaction was terminated, the system was shaken with a toluene scintillator to thereby transfer [^3 H]-acetic acid into the toluene layer. The radioactivity in the toluene layer was then measured with a liquid scintillation counter to estimate the anticholinesterase activity of the test compound.
The anticholinesterase activity of the test compound was expressed in 50% inhibitory concentration (IC50).
The molecule `CCN(CCCCC1Cc2cc3c(cc2C1=O)OCO3)Cc1ccccc1OC` (stereo not shown) [Example 3-11] returned an IC50 of 170 nM.
Next, `CCN(CCCCC1Cc2cc(OC)c(OC)cc2C1=O)Cc1ccccc1OC` (stereo not shown) [Example 3-7]: 27 nM.
Next, `CCN(CCCCC1Cc2cc(N3CCCC3)ccc2C1=O)Cc1ccccc1OC` (stereo not shown) [Example 8, 2-[4-[N-Ethyl-N-[(2-methoxyphenyl)methyl]amino]butyl]-5-pyrrolidino-1-indanone fumarate]: 81 nM; `CCN(CCCCCCC1Cc2cc(OC)c(OC)cc2C1=O)Cc1ccccc1OC` (stereo not shown) [Example 3-15]: 100 nM; `CCN(CCCCC1Cc2cc(OC)c(OC)cc2C1=O)Cc1cccc(OC)c1` (stereo not shown) [Example 3-8]: 110 nM.
Take `CCN(CCCC1Cc2cc(OC)c(OC)cc2C1=O)Cc1ccccc1OC` (stereo not shown) [Example 3-4]: the IC50 is 11 nM. This IC50 is about 10-fold lower than that of the molecule before.
Turning to `CCN(CCCCC1Cc2cc(N3CCCC3)ccc2C1=O)Cc1ccccc1` (stereo not shown) [Example 7, 2-[4-[N-Ethyl-N-(phenylmethyl)amino]butyl]-5-pyrrolidino-1-indanone fumarate], half-maximal inhibition (IC50) required 143 nM.
As for `CCN(CCC1Cc2cc(OC)c(OC)cc2C1=O)Cc1ccccc1OC` (stereo not shown) [Example 3-5], the figure is 680 nM; as for `CCN(CCCCC1Cc2cc(OC)ccc2C1=O)Cc1ccccc1OC` (stereo not shown) [Example 3-10], 110 nM; as for `CCN(CCCCC1Cc2cc(OC)c(OC)c(OC)c2C1=O)Cc1ccccc1OC` (stereo not shown) [Example 3-9], 90 nM.
As for `CCN(CCCCC1Cc2cc(OC)c(OC)cc2C1=O)Cc1ccccc1OC` (stereo not shown) [Example 3-2], the figure is 20 nM; as for `CCN(CCCCCC1CCc2cc(OC)ccc2C1=O)Cc1ccccc1OC` (stereo not shown) [Example 3-12], 130 nM.
Next, `CCN(CCCCC1Cc2cc(OC)c(OC)cc2C1=O)Cc1cccc(O)c1` (stereo not shown) [Example 3-14]: 630 nM.
Regarding `CCN(CCCCCC1Cc2cc(OC)c(OC)cc2C1=O)Cc1ccccc1` (stereo not shown) [Example 3-1], the IC50 is 120 nM.
For the molecule `CCN(CCCCC1Cc2cc(OC)c(OC)cc2C1=O)Cc1ccccc1` (stereo not shown) [Example 3-3], the IC50 worked out at 76 nM.
The molecule `CCN(CCCC1Cc2cc(OC)c(OC)cc2C1=O)Cc1ccccc1OC` (stereo not shown) [Example 3-6] showed an IC50 of 14 nM.
As for `CCN(CCCC1Cc2cc(OC)c(OC)cc2C1=O)Cc1cccc(O)c1` (stereo not shown) [Example 3-13], the figure is 210 nM; as for `CCN(CCCCCC1Cc2cc(OC)c(OC)cc2C1O)Cc1ccccc1OC` (stereo not shown) [Example 4, 1,2-Dihydro-5,6-dimethoxy-2-[5-[N-ethyl-N-[(2-methoxyphenyl)methyl]amino]pentyl]-1-hydroxyindene], 160 nM.
`CCN(CCCCCC1=Cc2cc(OC)c(OC)cc2C1)Cc1ccccc1OC` [Example 5, 5,6-Dimethoxy-2-[5-[N-ethyl-N-[(2-methoxyphenyl)methyl]amino]pentyl]indene hydrochloride] yielded an IC50 of 600 nM.
